Measured values published in patent publication US20150065544A1, “THERAPEUTIC AGENT AND PREVENTIVE AGENT FOR DEMYELINATING DISEASE” (OSAKA UNIVERSITY, priority 2011, published 2015).

Experiments:
[1] = tested on: mouse experimental autoimmune encephalomyelitis (EAE) models; assay: Clinical symptom scores in mouse experimental autoimmune encephalomyelitis (EAE) model; type: in vivo, mouse (SJL/J); settings: Day 10 to Day 44 after immunization, versus tap water group 1, FIG. 1
Description: In mouse experimental autoimmune encephalomyelitis (EAE) models, which are MS animal models, the effects of 2-(3-cyano-4-isobutyloxyphenyl)-4-methyl-5-thiazolecarboxylic acid (Compound A) were investigated. Proteolipid protein (PLP) and complete Freund's adjuvant were administered subcutaneously to 8-week-old female SJL/J mice for immunization to induce EAE. The animals were divided into 3 groups; tap water, 1.5 mg/kg/day of Compound A and 0.75 mg/kg/day of Compound A were administered to the first, second and third group, respectively, by administration in drinking water from Day 10 to Day 44 after the immunization day. Neurological symptoms in the extremities were monitored daily from the day of immunization to Day 44 post-immunization, and the observations were scored as clinical symptoms (Vsevolod Smolianov, et al., Alteration of T cell cytokine production in PLPp-139-151-induced EAE in SJL mice by animmunostimulatory CpG Oligonucleotide. Journal of Neuroinflammation 2011, 8:59).

[2] = tested on: mouse experimental autoimmune encephalomyelitis (EAE) models; assay: Histopathological examination of spinal cord tissues of EAE mice; type: in vivo, mouse (SJL/J); settings: Day 16 post-immunization

Cc1nc(-c2ccc(OCC(C)C)c(C#N)c2)sc1C(=O)O [Compound A, 2-(3-cyano-4-isobutyloxyphenyl)-4-methyl-5-thiazolecarboxylic acid]
Clinical symptoms of EAE (neurological symptom scores) ([1]; group 2: 1.5 mg/kg/day in drinking water): suppressed
Clinical symptoms of EAE (neurological symptom scores) ([1]; group 3: 0.75 mg/kg/day in drinking water): suppressed
Inflammation in the spinal cord tissues (iNOS-positive cells, activated macrophages, activation of astrocytes) ([2]; conclusion from FIG. 2): suppressed inflammation in the tissues
Staining of inducible nitric oxide synthase (iNOS), macrophages and astrocytes in spinal cord tissues ([2]; group 3: 0.75 mg/kg/day, versus tap water group 1, FIG. 2): weak
